Measurements published in PMC4216216 (Journal of Medicinal Chemistry, 2014).

How the values were obtained:
HeLa cells = settings: read-out: cytotoxic IC50 in HeLa cells; cited from earlier work
KDM4A [1] = target: T1, KDM4A (Homo sapiens, UniProt O75164)
T1 sequence (O75164 1-347): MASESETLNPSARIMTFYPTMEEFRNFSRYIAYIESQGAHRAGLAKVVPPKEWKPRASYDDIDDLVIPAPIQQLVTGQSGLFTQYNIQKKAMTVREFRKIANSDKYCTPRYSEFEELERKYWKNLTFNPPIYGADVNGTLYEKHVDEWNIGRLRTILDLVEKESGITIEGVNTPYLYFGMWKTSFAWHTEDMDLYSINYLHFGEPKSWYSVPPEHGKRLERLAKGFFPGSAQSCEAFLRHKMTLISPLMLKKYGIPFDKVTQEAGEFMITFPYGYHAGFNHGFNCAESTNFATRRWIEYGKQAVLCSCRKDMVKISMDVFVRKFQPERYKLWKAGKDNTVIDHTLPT

KDM4B [2] = target: T2, KDM4B (Homo sapiens, UniProt O94953)
T2 sequence (O94953 1-348): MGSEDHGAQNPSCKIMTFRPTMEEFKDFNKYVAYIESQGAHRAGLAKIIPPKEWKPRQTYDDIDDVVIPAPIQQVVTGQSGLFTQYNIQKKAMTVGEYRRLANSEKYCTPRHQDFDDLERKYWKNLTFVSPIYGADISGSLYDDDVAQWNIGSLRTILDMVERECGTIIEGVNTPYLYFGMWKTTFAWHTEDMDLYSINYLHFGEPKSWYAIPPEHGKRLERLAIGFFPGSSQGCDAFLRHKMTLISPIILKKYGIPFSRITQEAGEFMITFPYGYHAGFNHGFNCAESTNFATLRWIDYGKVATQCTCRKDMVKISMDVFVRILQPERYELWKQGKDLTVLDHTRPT

KDM4B [3] = target: T2, KDM4B; settings: 10 μM enzyme, 100 μM inhibitor, 5 μM H3, 37 °C, 30 min
cultured cells = settings: as a prodrug; cited from earlier work
KDM4A [4] = target: T1, KDM4A; test: Demethylation of calf thymus H3 by KDM4A, western blot; settings: 10 μM enzyme, 100 μM inhibitor, 5 μM H3, 37 °C, 30 min
H3K9me3 in LNCaP cells = test: Histone H3 methylation level in LNCaP cells, western blot; type: cell-based
LNCaP cells [5] = test: Microarray gene expression in LNCaP cells; type: cell-based; settings: 50 μM, 3 days
LNCaP cells [6] = settings: 5–20 μM, over 6 days
PNT2 cells = test: PNT2 normal prostate cell growth; settings: 5–20 μM, over 6 days
RWPE1 = RWPE1 normal prostate cell growth; settings: 20 μM treatment

SMILES	IC50 (HeLa cells)	activity (KDM4A [1])	activity (KDM4B [2])	demethylation of histone H3K9me3 and H3K36me3 by KDM4B (KDM4B [3])	cytotoxic IC50 in cultured cells (cultured cells)	demethylation of histone H3K9me3 and H3K36me3 by KDM4A (KDM4A [4])	demethylating activity toward H3K9me3 in LNCaP cells (H3K9me3 in LNCaP cells; 5 μM, 24 h)	level of H3K9me3 in LNCaP cells (H3K9me3 in LNCaP cells; 10 µM, 3 days)	signals of H3K4me2, H3K27me3, H3K27me2, H3K36me3, H3K36me2 and H3K79me2 in LNCaP cells (H3K9me3 in LNCaP cells; 10 µM, 3 days, control vs treated)	cellular level of H3K9me3, dose-dependent (H3K9me3 in LNCaP cells; 1–100 μM, 24 h)	expression of oncogenes IGF1R, FGFR3, CCNE2, AURKA and AURKB (LNCaP cells [5])	expression of tumor suppressors RB1 and CDH1 (LNCaP cells [5])	inhibitory mode against H3_3–17K9me3, KDM4A (KDM4A [1])	growth of LNCaP cells (LNCaP cells [6])	effect on PNT2 cells (PNT2 cells)	growth of RWPE1 cells (RWPE1)
O=C(O)c1ccc(O)c2ncccc12 [5-carboxy-8HQ]	86.5 µM	–	–	–	–	–	–	–	–	–	–	–	–	–	–	–
O=C(O)c1ccnc(C(=O)O)c1 [Compound 2, pyridine 2,4-dicarboxylic acid]	–	21%	24%	blocked the demethylation activity	millimolar range	blocked the demethylation activity	–	–	–	–	–	–	–	–	–	–
O=[N+]([O-])c1cc([N+](=O)[O-])c(/C=C/c2ccc(Cl)c(Cl)c2)cc1/C=C/c1ccc(Cl)c(Cl)c1 [Compound 4, 1,5-bis[(E)-2-(3,4-dichlorophenyl)ethenyl]-2,4-dinitrobenzene]	–	–	–	–	–	blocked the demethylation activity	almost completely blocked	significantly increased	essentially comparable signals	notable increase	downregulation	upregulation	competitive	significantly affected	hardly any effect	slightly reduced growth
